Legend:
memapsin 2 = memapsin 2 (Homo sapiens, UniProt P56817); assay: Inhibition of memapsin 2 catalytic activity (Ki); format: biochemical; settings: memapsin 2, pH 4, 37° C.; read-out: M2K
Method in brief: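 Run at 37 °C and pH 4: compound and enzyme pre-incubated 20 min before FS-2 fluorogenic substrate started hydrolysis,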

memapsin 1 = target: T1, memapsin 1 (Homo sapiens, UniProt Q9Y5Z0); assay: Inhibition of memapsin 1 catalytic activity (Ki); format: biochemical; settings: memapsin 1, pH 4.0, 37° C.; read-out: M1K
T1 sequence (Q9Y5Z0 63-518): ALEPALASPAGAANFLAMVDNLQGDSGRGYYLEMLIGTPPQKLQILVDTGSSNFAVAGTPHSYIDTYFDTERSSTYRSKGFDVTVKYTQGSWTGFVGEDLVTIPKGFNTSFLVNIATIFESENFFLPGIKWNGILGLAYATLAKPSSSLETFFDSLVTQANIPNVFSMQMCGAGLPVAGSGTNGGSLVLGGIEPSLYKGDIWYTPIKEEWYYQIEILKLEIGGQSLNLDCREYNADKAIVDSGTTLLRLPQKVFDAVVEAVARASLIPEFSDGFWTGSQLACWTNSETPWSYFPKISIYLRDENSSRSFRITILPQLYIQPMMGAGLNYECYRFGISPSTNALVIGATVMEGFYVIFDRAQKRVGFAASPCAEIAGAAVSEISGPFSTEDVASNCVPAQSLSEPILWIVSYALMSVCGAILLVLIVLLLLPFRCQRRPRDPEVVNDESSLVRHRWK
Procedure: A substrate peptide NH3-ELDLAVEFWHDR-CO2 (SEQ ID NO.:1) (used for inhibition assay of memapsin 2, memapsin 1, and cathepsin D) was dissolved at 2 mg/ml in DMSO and diluted 1:100 in 0.1 M sodium acetate, pH 4.0 just prior to assay. Inhibitor dissolved in DMSO was diluted into 0.1 M sodium acetate, pH 4.0 (1:100 dilution). A […] aliquot of the inhibitor solution in pH 4 buffer was combined with […] of 0.1 M sodium acetate containing 100-200 nM of memapsin 1, memapsin 2, or cathepsin D. Following a pre-incubation at 37° C., the proteolytic assay was initated by addition of […] of the substrate diluted into pH 4 buffer, and incubation continued at 37° C. Aliquots were removed at time intervals, and combined with an equal volume of MALDI-TOF matrix (α-hydroxycinnamic acid in acetone, 20 mg/ml) and immediately spotted in duplicate onto a stainless-steel MALDI sample plate. MALDI-TOF mass spectrometry was performed on a PE Biosystems Voyager DE instrument at the Molecular Biology Resource Center on campus. The instrument was operated at 25,000 accelerating volts in positive mode with a 150 ns delay. Ions with a mass-to-charge ratio (m/z) were detected in the range of 650-2000 atomic mass units. Data were analyzed by the Voyager Data Explorer module to obtain ion intensity data for mass species of substrates and corresponding products in a given mixture. Relative product formation was calculated as the ratio of signal intensity of the product to the sum of signal intensities of both product and the corresponding substrate. Relative product formed per unit time was obtained from non-linear regression analysis of the data representing the initial 15% formation of product using the model: 1−e^−kT, where k was the relative hydrolytic rate constant and T was time in seconds. Alternatively, relative hydrolytic rates were determined using a fluorogenic cleavage assay (Ermolieff, J. et al., Biochemistry, 39: 12450-12456 (2000)). Initial rates from either method were expressed relative to uninhibited controls and the inhibition constant Ki was determined by a non-linear fit to a tight-binding model of competitive inhibition (Bieth, J., Bayer-Symposium V: Proteinase Inhibitors, pp 463-469, Spinger-Varlag, Berlin (1994)). Results are shown in Table 1 above (M2K, CDK, and M1K columns represent, respectively, the K1 values obtained for memapsin 2, cathepsin D and memapsin 1).

cathepsin D = cathepsin D (Homo sapiens, UniProt P07339); assay: Inhibition of cathepsin D catalytic activity (Ki); format: biochemical; settings: pH 4.0, 37° C., read-out: CDK
cathepsin D, sequence (P07339 65-412, species assumed): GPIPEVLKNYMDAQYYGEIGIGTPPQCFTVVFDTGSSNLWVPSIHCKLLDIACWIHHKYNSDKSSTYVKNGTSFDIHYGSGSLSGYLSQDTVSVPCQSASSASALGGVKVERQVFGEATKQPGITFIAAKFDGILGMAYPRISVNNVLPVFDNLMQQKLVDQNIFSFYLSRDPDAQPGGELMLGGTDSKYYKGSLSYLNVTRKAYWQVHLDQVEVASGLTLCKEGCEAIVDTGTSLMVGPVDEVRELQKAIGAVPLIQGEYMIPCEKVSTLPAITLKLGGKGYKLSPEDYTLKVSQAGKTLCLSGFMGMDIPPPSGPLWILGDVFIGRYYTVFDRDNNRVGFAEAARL

[1] = system: Aβ production in Chinese hamster ovary cells that over-express human APP695 with the London and Swedish mutations; assay: Cellular Aβ IC50 determination (Aβ40 sandwich ELISA); settings: Cricetulus griseus, CHO, 24 h, read-out: Cell, Aβ40, CHO cells over-expressing human APP695 (London and Swedish mutations), 24 h
Procedure: The potency of compounds against memapsin 2 catalytic activity was determined in a cellular assay of Aβ production. […] Compounds are dissolved in DMSO to concentrations near 1 mM, and diluted into culture media to a final concentration near 4 μM (final 0.4% DMSO). Compounds were diluted serially and applied to cells in multi-well plates 48 h after seeding. Incubation was continued in 5% CO2 at 37 degrees C. for 24 h. Aliquots were removed and assayed for Aβ40 content using a sandwich ELISA (BioSource International). Amount of Aβ40 over the range of concentration of compounds, relative to control incubations, were fit to a 4-parameter IC50 model.

memapsin 2, sequence (P56817 46-501): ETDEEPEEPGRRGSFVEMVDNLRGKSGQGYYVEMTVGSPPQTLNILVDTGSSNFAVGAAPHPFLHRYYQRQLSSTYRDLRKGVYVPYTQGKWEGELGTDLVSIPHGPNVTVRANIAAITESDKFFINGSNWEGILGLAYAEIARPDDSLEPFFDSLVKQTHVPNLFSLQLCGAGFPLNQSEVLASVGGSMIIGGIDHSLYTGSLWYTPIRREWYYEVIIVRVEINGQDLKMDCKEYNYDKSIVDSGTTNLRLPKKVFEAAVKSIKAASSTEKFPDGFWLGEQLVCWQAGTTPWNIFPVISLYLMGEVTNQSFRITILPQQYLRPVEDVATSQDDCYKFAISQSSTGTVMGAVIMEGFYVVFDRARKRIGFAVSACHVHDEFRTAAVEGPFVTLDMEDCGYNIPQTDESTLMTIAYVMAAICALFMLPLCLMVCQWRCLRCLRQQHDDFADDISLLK

Row | Compound | Ki (memapsin 2) | Ki (memapsin 1) | Ki (cathepsin D) | IC50 [1]
1 | 4- or 6-fluoro-N3-(3-hydroxy-4-(3-methoxybenzylamino)-1-phenylbutan-2-yl)-N1-methyl-N1-((4-methylthiazol-2-yl)methyl)isophthalamide | < 0.3 µM | < 0.3 µM | < 0.3 µM | 
2 | CCN(c1cc(C(=O)NC(C)c2ccccc2)cc(C(=O)NC(Cc2ccccc2)C(O)CNCc2cccc(OC)c2)c1)S(C)(=O)=O (stereo not drawn) [5-(N-ethylmethylsulfonamido)-N1-(3-hydroxy-4-(3-methoxybenzylamino)-1-phenylbutan-2-yl)-N3-(1-phenylethyl)isophthalamide] | 0.301 to 0.5 µM | < 0.3 µM | < 0.3 µM | < 1 µM
3 | COc1cccc(CNCC(O)C(Cc2ccccc2)NC(=O)c2cc(C(=O)NC(C)c3nc(C)oc3C)cc(N(C)S(C)(=O)=O)c2)c1 (stereo not drawn) [N1-(1-(2,5-dimethyloxazol-4-yl)ethyl)-N3-(3-hydroxy-4-(3-methoxybenzylamino)-1-phenylbutan-2-yl)-5-(N-methylmethylsulfonamido)isophthalamide] | > 0.501 µM | > 0.501 µM | > 0.501 µM | 1 to 5 µM
4 | COc1cccc(CNCC(O)C(CC(C)C)NC(=O)c2cc(C(=O)NC(C)c3ccccc3)cc(N(C)S(C)(=O)=O)c2)c1 (stereo not drawn) [N1-(2-hydroxy-1-(3-methoxybenzylamino)-5-methylhexan-3-yl)-5-(N-methylmethylsulfonamido)-N3-(1-phenylethyl)isophthalamide] | > 0.501 µM | > 0.501 µM |  | 
5 | CC(C)NC(=O)c1cccc(CNCC(O)C(Cc2ccccc2)NC(=O)c2cc(C(=O)NC(C)c3ccccc3)cc(N(C)S(C)(=O)=O)c2)c1 (stereo not drawn) [N1-(3-hydroxy-4-(3-(isopropylcarbamoyl)benzylamino)-1-phenylbutan-2-yl)-5-(N-methylmethylsulfonamido)-N3-(1-phenylethyl)isophthalamide] | > 0.501 µM | > 0.501 µM |  | > 5 µM
6 | COCc1cccc(CNCC(O)C(Cc2ccccc2)NC(=O)c2cc(C(=O)NC(C)c3ccccc3)cc(N(C)S(C)(=O)=O)c2)c1 (stereo not drawn) [N1-(3-hydroxy-4-(3-(methoxymethyl)benzylamino)-1-phenylbutan-2-yl)-5-(N-methylmethylsulfonamido)-N3-(1-phenylethyl)isophthalamide] |  | > 0.501 µM |  | > 5 µM
7 | COc1cccc(CNCC(O)C(Cc2ccccc2)NC(=O)c2cc(C(=O)NC(C)c3ccccc3)cc(N(C)S(C)(=O)=O)c2)c1 (stereo not drawn) [N1-(3-hydroxy-4-(3-methoxybenzylamino)-1-phenylbutan-2-yl)-5-(N-methylmethylsulfonamido)-N3-(1-phenylethyl)isophthalamide] |  | < 0.3 µM | < 0.3 µM | < 1 µM
8 | COc1cccc(CNCC(O)C(Cc2ccccc2)NC(=O)c2cc(C(=O)NC(C)c3cccc(OC)c3)cc(N(C)S(C)(=O)=O)c2)c1 (stereo not drawn) [N1-(3-hydroxy-4-(3-methoxybenzylamino)-1-phenylbutan-2-yl)-N3-(1-(3-methoxyphenyl)ethyl)-5-(N-methylmethylsulfonamido)isophthalamide] | < 0.3 µM | > 0.501 µM |  | < 1 µM
9 | COc1cncc(CNCC(O)C(Cc2ccccc2)NC(=O)c2cc(C(=O)NC(C)c3ccccc3)cc(N(C)S(C)(=O)=O)c2)c1 (stereo not drawn) [N1-(3-hydroxy-4-((5-methoxypyridin-3-yl)methylamino)-1-phenylbutan-2-yl)-5-(N-methylmethylsulfonamido)-N3-(1-phenylethyl)isophthalamide] | < 0.3 µM | 0.301 to 0.5 µM | < 0.3 µM | 
10 | Cc1csc(CN(C)CC(O)C(Cc2ccccc2)NC(=O)c2cc(C(=O)NC(C)c3ccccc3)cc(N(C)S(C)(=O)=O)c2)n1 (stereo not drawn) [N1-(3-hydroxy-4-(methyl((4-methylthiazol-2-yl)methyl)amino)-1-phenylbutan-2-yl)-5-(N-methylmethylsulfonamido)-N3-(1-phenylethyl)isophthalamide] | > 0.501 µM | > 0.501 µM | > 0.501 µM | 

Second part, the compound after the results:

Row | Ki (memapsin 2) | Ki (memapsin 1) | Ki (cathepsin D) | IC50 [1] | Compound
11 | 0.301 to 0.5 µM | < 0.3 µM | > 0.501 µM |  | CC(NC(=O)c1cc(C(=O)NC(Cc2ccccc2)C(O)CNCc2cccc(COCc3ccccc3)c2)cc(N(C)S(C)(=O)=O)c1)c1ccccc1 (stereo not drawn) [N1-(4-(3-(benzyloxymethyl)benzylamino)-3-hydroxy-1-phenylbutan-2-yl)-5-(N-methylmethylsulfonamido)-N3-(1-phenylethyl)isophthalamide]
12 |  | > 0.501 µM | > 0.501 µM | 1 to 5 µM | Cc1nc(CNCC(O)C(Cc2ccccc2)NC(=O)c2cc(C(=O)NC(C)c3ccccc3)cc(N(C)S(C)(=O)=O)c2)c(C)o1 (stereo not drawn) [N1-(4-((2,5-dimethyloxazol-4-yl)methylamino)-3-hydroxy-1-phenylbutan-2-yl)-5-(N-methylmethylsulfonamido)-N3-(1-phenylethyl)isophthalamide]
13 | < 0.3 µM |  | 0.301 to 0.5 µM | < 1 µM | CC(NC(=O)c1cc(C(=O)NC(Cc2ccccc2)C(O)CNCc2cncc(N(C)C)c2)cc(N(C)S(C)(=O)=O)c1)c1ccccc1 (stereo not drawn) [N1-(4-((5-(dimethylamino)pyridin-3-yl)methylamino)-3-hydroxy-1-phenylbutan-2-yl)-5-(N-methylmethylsulfonamido)-N3-(1-phenylethyl)isophthalamide]
14 | < 0.3 µM |  | < 0.3 µM | < 1 µM | CCc1cncc(CNCC(O)C(Cc2ccccc2)NC(=O)c2cc(C(=O)NC(C)c3ccccc3)cc(N(C)S(C)(=O)=O)c2)c1 (stereo not drawn) [N1-(4-((5-ethylpyridin-3-yl)methylamino)-3-hydroxy-1-phenylbutan-2-yl)-5-(N-methylmethylsulfonamido)-N3-(1-phenylethyl)isophthalamide]
15 | < 0.3 µM |  | < 0.3 µM | < 1 µM | CCc1cncc(CNCC(O)C(Cc2ccccc2)NC(=O)c2cccc(C(=O)N(C)Cc3nc(C)cs3)c2)c1 (stereo not drawn) [N1-(4-((5-ethylpyridin-3-yl)methylamino)-3-hydroxy-1-phenylbutan-2-yl)-N3-methyl-N3-((4-methylthiazol-2-yl)methyl)isophthalamide]
16 | < 0.3 µM |  | < 0.3 µM | < 1 µM | CC(NC(=O)c1cc(C(=O)NC(Cc2ccccc2)C(O)CNCc2cncc(F)c2)cc(N(C)S(C)(=O)=O)c1)c1ccccc1 (stereo not drawn) [N1-(4-((5-fluoropyridin-3-yl)methylamino)-3-hydroxy-1-phenylbutan-2-yl)-5-(N-methylmethylsulfonamido)-N3-(1-phenylethyl)isophthalamide]
17 | < 0.3 µM | > 0.501 µM | < 0.3 µM |  | COc1cccc(CNCC(O)C(Cc2ccccc2)NC(=O)c2cccc(C(=O)N(Cc3nc(C)cs3)C3CC3)c2)c1 (stereo not drawn) [N1-cyclopropyl-N3-(3-hydroxy-4-(3-methoxybenzylamino)-1-phenylbutan-2-yl)-N1-((4-methylthiazol-2-yl)methyl)isophthalamide]
18 | < 0.3 µM |  | < 0.3 µM | 1 to 5 µM | CC(NC(=O)c1cc(C(=O)NC(Cc2ccccc2)C(O)CNCC2CCN(C(=O)OCc3ccccc3)CC2)cc(N(C)S(C)(=O)=O)c1)c1ccccc1 (stereo not drawn) [benzyl 4-((2-hydroxy-3-(3-(N-methylmethylsulfonamido)-5-(1-phenylethylcarbamoyl)benzamido)-4-phenylbutylamino)methyl)piperidine-1-carboxylate]

From patent US7504420B2, “Compounds which inhibit beta-secretase activity and methods of use” (CoMentis, Inc., priority 2005, dated 2009)
